Source: US20260294915A1, “COMBINATION THERAPY COMPRISING A MAT2A INHIBITOR AND A TOPOISOMERASE INHIBITOR, A SPLICING INHIBITOR SULFONAMIDE, OR A KIF18 INHIBITOR” (IDEAYA BIOSCIENCES, INC., priority 2023, published 2026)
Marks after values point to notes of the source that are not given here.

Assays:
Assay in all cases: 10-day proliferation (CTG), SPLAM titration + 1000 nM Compound A, Bliss (Example 5; Tables 12-19)
Type in all cases: cell-based
Set-up in all cases: key: GDI scale -100 to 100; 0 = cell number at T0; <0 cytotoxic
RT112/84 = details: for GDI (growth death index), single agent Cmpd A: RT112/84, 1000 nM Compound A
Description: (§1) Synergy was measured across the Indisulam titration with 1000 nM Compound A by Bliss Independence analysis. Bliss scores >10 are indicated by “*” and are considered synergistic. […] Synergy as reported using Bliss may be underrepresented within cytotoxic dose ranges. Growth death index values are shown for the combination titration and each single agent Compound A (Cmpd A) and Indisulam on a scale of −100 to 100 with the midpoint (0) being the number of cells at the beginning of the combination (T0). Scores less than 0 are indicated with “**” and are representative of a cytotoxic response. Bliss and GDI values are shown for five MTAP-deficient cell lines: NCI-1H838 (12A), SW900 (12B), RT112/84 (12C), UMUC5 (121D), and UMUC11 (12E).
(§2) A 10-day proliferation assay was performed in a panel of 5 MTAP-deficient and 2 wild type non-small cell lung and bladder cancer cell lines. Optimal cell seeding for all cell lines was determined by assessing the growth over a range of seeding densities in a 384-well format to identify conditions that permitted proliferation for 10 days. Cells were then plated at the optimal seeding density and treated with 20-point, two-fold dilution series of each of four structurally different SPLAMs in combination with a 1000 nM fixed concentration of Compound A. Single agent titrations for Compound A and each SPLAM were included for comparison. Concentrations tested for each SPLAM alone or in combination ranged from 0.04 nM to 20,000 nM. A plate of cells was harvested at the time of compound addition to quantify the number of cells at the start of the combination (T0). For cell quantification, the harvested cells were lysed with Promega CellTiter-Glo (CTG) reagent according to the manufacturer's protocol and the chemiluminescent signal was detected as described in Example 1 above. Cells were incubated with the drug combinations at 37° C. with 5% CO2 for 10 days. Cells were then lysed with CTG and the chemiluminescent signal was measured.
(§3) CTG values obtained after the 10-day treatment were background subtracted and expressed as a percent of the T0 value set at 100%. Data were plotted against compound concentration and fit with a four-parameter equation to generate single agent dose response curves. Percent inhibition was determined for each combination and single agent concentration compared to a DMSO control. In addition, the overall net growth or death of the cells was calculated and reported as a growth death index (GDI) value on a scale of −100 to 100 with the midpoint (0) being the number of cells at the beginning of the combination (T0).
(§4) Predicted inhibition was calculated using (Ea+Eb)−(Ea*Eb) where E equals the effect (inhibition) of each single agent (a and b). A difference between the observed inhibition percentage and the predicted inhibition percentage greater than 10% was considered synergistic. A Bliss score was only reported for combinations eliciting >20% growth inhibition (GDI value <80). Since Bliss is calculated based on growth inhibition, scores within cytotoxic dose ranges may not accurately reflect synergistic cytoxicity.
(§5) Synergy was measured across the E7820 titration with 1000 nM Compound A by Bliss Independence analysis. Bliss scores >10 are indicated by “*” and are considered synergistic. […] Synergy as reported using Bliss may be underrepresented within cytotoxic dose ranges. Growth death index values are shown for the combination titration and each single agent Compound A (Cmpd A) and Indisulam on a scale of −100 to 100 with the midpoint (0) being the number of cells at the beginning of the combination (T0). Scores less than 0 are indicated by “**” and are representative of a cytotoxic response. Bliss and GDI values are shown for five MTAP-deficient cell lines: NCI-1H838 (14A), SW900 (14B), RT112/84 (14C), UMUC5 (141)), and UMUC11 (14E).
(§6) Synergy was measured across the Chloroquinoxaline Sulfonamide titration with 1000 nM Compound A by Bliss Independence analysis.

UMUC11 = details: for GDI (growth death index), single agent Cmpd A: UMUC11, 1000 nM Compound A
Description: as §1, §2, §3, §4, §5, §6

NCI-H838 = system: NCI-H838
Description: as §1, §2, §3, §4, §5, §6

SW900 = details: for GDI: alone or + 1 uM Cmpd A; for GDI (growth death index), single agent Cmpd A: SW900, 1000 nM Compound A
Description: as §1, §2, §3, §4, §5, §6

[1] = SPLAM 0.04 nM, alone or + 1 uM Cmpd A
[2] = SPLAM 0.1 nM, alone or + 1 uM Cmpd A
[3] = SPLAM 0.2 nM, alone or + 1 uM Cmpd A
[4] = SPLAM 0.3 nM, alone or + 1 uM Cmpd A
[5] = SPLAM 0.6 nM, alone or + 1 uM Cmpd A
[6] = SPLAM 1.2 nM, alone or + 1 uM Cmpd A
[7] = SPLAM 2.4 nM, alone or + 1 uM Cmpd A
[8] = SPLAM 4.9 nM, alone or + 1 uM Cmpd A
[9] = SPLAM 9.8 nM, alone or + 1 uM Cmpd A
[10] = SPLAM 19.5 nM, alone or + 1 uM Cmpd A
[11] = SPLAM 39.1 nM, alone or + 1 uM Cmpd A
[12] = SPLAM 78.1 nM, alone or + 1 uM Cmpd A
[13] = SPLAM 156.3 nM, alone or + 1 uM Cmpd A
[14] = SPLAM 312.5 nM, alone or + 1 uM Cmpd A
[15] = SPLAM 625 nM, alone or + 1 uM Cmpd A
[16] = SPLAM 1250 nM, alone or + 1 uM Cmpd A
[17] = SPLAM 2500 nM, alone or + 1 uM Cmpd A
[18] = SPLAM 5000 nM, alone or + 1 uM Cmpd A
[19] = SPLAM 10000 nM, alone or + 1 uM Cmpd A
[20] = SPLAM 20000 nM, alone or + 1 uM Cmpd A

NS(=O)(=O)c1ccc(S(=O)(=O)Nc2cccc3c(Cl)c[nH]c23)cc1 [Indisulam, N-(3-chloro-1H-indol-7-yl)benzene-1,4-disulfonamide]
GDI (RT112/84; [1]): 98
GDI (RT112/84; [2]): 100
GDI (RT112/84; [3]): 100
GDI (RT112/84; [4]): 100
GDI (RT112/84; [5]): 96
GDI (RT112/84; [6]): 95
GDI (RT112/84; [7]): 100
GDI (RT112/84; [8]): 100
GDI (RT112/84; [9]): 100
GDI (RT112/84; [10]): 100
GDI (RT112/84; [11]): 100
GDI (RT112/84; [12]): 100
GDI (RT112/84; [13]): 99
GDI (RT112/84; [14]): 44
GDI (RT112/84; [15]): 12
GDI (RT112/84; [16]): −34**
GDI (RT112/84; [17]): −76**
GDI (RT112/84; [18]): −63**
GDI (RT112/84; [19]): −74**
GDI (RT112/84; [20]): −92**
GDI (UMUC11; [1]): 100
GDI (UMUC11; [2]): 100
GDI (UMUC11; [3]): 100
GDI (UMUC11; [4]): 100
GDI (UMUC11; [5]): 100
GDI (UMUC11; [6]): 100
GDI (UMUC11; [7]): 100
GDI (UMUC11; [8]): 100
GDI (UMUC11; [9]): 100
GDI (UMUC11; [10]): 100
GDI (UMUC11; [11]): 100
GDI (UMUC11; [12]): 100
GDI (UMUC11; [13]): 100
GDI (UMUC11; [14]): 73
GDI (UMUC11; [15]): 35
GDI (UMUC11; [16]): 13
GDI (UMUC11; [17]): 5
GDI (UMUC11; [18]): 2
GDI (UMUC11; [19]): 2
GDI (UMUC11; [20]): 1
GDI (NCI-H838; [1]): 100
GDI (NCI-H838; [2]): 100
GDI (NCI-H838; [3]): 100
GDI (NCI-H838; [4]): 100
GDI (NCI-H838; [5]): 100
GDI (NCI-H838; [6]): 100
GDI (NCI-H838; [7]): 100
GDI (NCI-H838; [8]): 100
GDI (NCI-H838; [9]): 100
GDI (NCI-H838; [10]): 100
GDI (NCI-H838; [11]): 100
GDI (NCI-H838; [12]): 100
GDI (NCI-H838; [13]): 100
GDI (NCI-H838; [14]): 54
GDI (NCI-H838; [15]): 11
GDI (NCI-H838; [16]): 2
GDI (NCI-H838; [17]): 1
GDI (NCI-H838; [18]): −13**
GDI (NCI-H838; [19]): −50**
GDI (NCI-H838; [20]): −52**
GDI (SW900; SPLAM 0.04 nM): 100
GDI (SW900; SPLAM 0.1 nM): 98
GDI (SW900; SPLAM 0.2 nM): 94
GDI (SW900; SPLAM 0.3 nM): 100
GDI (SW900; SPLAM 0.6 nM): 100
GDI (SW900; SPLAM 1.2 nM): 100
GDI (SW900; SPLAM 2.4 nM): 100
GDI (SW900; SPLAM 4.9 nM): 100
GDI (SW900; SPLAM 9.8 nM): 100
GDI (SW900; SPLAM 19.5 nM): 100
GDI (SW900; SPLAM 39.1 nM): 100
GDI (SW900; SPLAM 78.1 nM): 100
GDI (SW900; SPLAM 156.3 nM): 100
GDI (SW900; SPLAM 312.5 nM): 34
GDI (SW900; SPLAM 625 nM): −3**
GDI (SW900; SPLAM 1250 nM): −33**
GDI (SW900; SPLAM 2500 nM): −61**
GDI (SW900; SPLAM 5000 nM): −56**
GDI (SW900; SPLAM 10000 nM): −58**
GDI (SW900; SPLAM 20000 nM): −60**

Nc1nc(=O)n(-c2ccccc2Cl)c2nc(C(F)(F)F)ccc12 [Compound A]
GDI (growth death index), single agent Cmpd A (RT112/84; Table 16C): 62
GDI (growth death index), single agent Cmpd A (RT112/84; Table 18C): 62
GDI (RT112/84; single agent Cmpd A, 1000 nM): 62
GDI (growth death index), single agent Cmpd A (UMUC11; Table 16E): 100
GDI (growth death index), single agent Cmpd A (UMUC11; Table 18E): 100
GDI (UMUC11; single agent Cmpd A, 1000 nM): 100
GDI (growth death index), single agent Cmpd A (NCI-H838; NCI-H838, 1000 nM Compound A, Table 18A): 49
GDI (NCI-H838; single agent Cmpd A, 1000 nM): 49
GDI (growth death index), single agent Cmpd A (SW900; Table 16B): 100
GDI (growth death index), single agent Cmpd A (SW900; Table 18B): 100
